The first test addresses Urokinase plasminogen activator surface receptor (Homo sapiens, UniProt Q03405). The experiment in a line: Binding affinity to uPAR.
Conditions: not given
Urokinase plasminogen activator surface receptor, sequence (Q03405 whole entry): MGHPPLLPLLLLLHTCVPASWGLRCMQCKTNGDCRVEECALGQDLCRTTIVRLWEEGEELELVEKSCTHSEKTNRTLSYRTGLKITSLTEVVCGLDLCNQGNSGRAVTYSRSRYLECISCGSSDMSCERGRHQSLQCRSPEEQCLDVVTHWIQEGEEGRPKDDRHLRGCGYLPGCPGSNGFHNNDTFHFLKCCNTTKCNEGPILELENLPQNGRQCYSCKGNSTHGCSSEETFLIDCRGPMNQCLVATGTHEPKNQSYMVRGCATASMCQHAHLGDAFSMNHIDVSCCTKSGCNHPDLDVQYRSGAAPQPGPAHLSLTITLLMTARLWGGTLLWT
One may read the Ki as the equilibrium dissociation constant of an inhibitor or competing ligand from its target. `O=C1NC2=Nc3ccccc3N(Cc3nc4ccccc4[nH]3)C2=Nc2ccccc21` gave a Ki of 6.36 pM.
Still for that read-out and setting: next, `Nc1c(-c2nc3ccccc3[nH]2)cc(-c2ccccc2)n1-c1cccc(Br)c1`: 12 pM; `Nc1c(-c2nc3ccccc3[nH]2)cc(-c2ccccc2)n1-c1cccc(Cl)c1`: 4.4 pM; `Nc1c(-c2nc3ccccc3[nH]2)cc(-c2ccccc2)n1-c1ccccn1`: 6.53 pM.
Same read-out and setting: the value for `N#Cc1cc(-c2ccccc2)n(-c2ccc(Cl)cc2)c1N` was 3.29 pM; that for `CCOC(=O)Cn1c(CN2C3=Nc4ccccc4C(=O)NC3=Nc3ccccc32)nc2ccccc21` was 1.7 pM; that for `N#Cc1cc(-c2ccccc2)n(-c2ccncc2)c1N` was 7.59 pM.
For the compound `Nc1nc2ccccc2[nH]c1=O`, affinity was put at a Ki of 20800 pM.
`N#Cc1cc(-c2ccccc2)n(-c2cccc(Br)c2)c1N` registered a Ki of 4.11 pM.
For the compound `N#Cc1cc(-c2ccccc2)n(-c2cccc(Cl)c2)c1N`, the affinity corresponds to a Ki of 2.27 pM.
The compound `Nc1c(-c2nc3ccccc3[nH]2)cc(-c2ccccc2)n1-c1ccc(Br)cc1` gave a Ki of 11 pM.
Regarding `N#Cc1cc(-c2ccccc2)n(-c2ccccn2)c1N`, the Ki is 33.3 pM.

The next test has as its system Raji. Nature of the test: Inhibition of tumor promotion in human Raji cells assessed as TPA-induced Epstein-Barr virus early antigen activation at 10 mol ratio/TPA after 48 hrs by indirect immunofluorescence analysis relative to TPA alone. The test is classed as functional. On the set-up: scale not given: the % may be the effect or the level left.
Conditions: not given
`O=C1NC2=Nc3ccccc3N(Cc3nc4ccccc4[nH]3)C2=Nc2ccccc21`: the Activity is reported as 100%.
For the compound `Nc1c(-c2nc3ccccc3[nH]2)cc(-c2ccccc2)n1-c1cccc(Br)c1`, the Activity is on record as 100%.
Consider `Nc1c(-c2nc3ccccc3[nH]2)cc(-c2ccccc2)n1-c1cccc(Cl)c1`, for which the Activity is recorded as 100%.
For `Nc1c(-c2nc3ccccc3[nH]2)cc(-c2ccccc2)n1-c1ccccn1`, the Activity was found to be 100%.
Take `CCOC(=O)Cn1c(CN2C3=Nc4ccccc4C(=O)NC3=Nc3ccccc32)nc2ccccc21`: the Activity stood at 100%.
`Nc1nc2ccccc2[nH]c1=O`: the Activity was found to be 100%.
As to `Nc1c(-c2nc3ccccc3[nH]2)cc(-c2ccccc2)n1-c1ccc(Br)cc1`, the Activity was 100%.

The next test deals with Raji. The experiment in a line: Inhibition of tumor promotion in human Raji cells assessed as TPA-induced Epstein-Barr virus early antigen activation at 100 mol ratio/TPA after 48 hrs by indirect immunofluorescence analysis relative to TPA alone. It is filed as functional. On the set-up: scale not given: the % may be the effect or the level left.
Conditions: not given
For `O=C1NC2=Nc3ccccc3N(Cc3nc4ccccc4[nH]3)C2=Nc2ccccc21`, the Activity is given as 85.6%.
Consider `Nc1c(-c2nc3ccccc3[nH]2)cc(-c2ccccc2)n1-c1cccc(Br)c1`, for which the Activity stood at 84%.
For the compound `Nc1c(-c2nc3ccccc3[nH]2)cc(-c2ccccc2)n1-c1cccc(Cl)c1`, the Activity was determined as 80.1%.
`Nc1c(-c2nc3ccccc3[nH]2)cc(-c2ccccc2)n1-c1ccccn1`: the Activity is recorded as 79.1%.
As for `CCOC(=O)Cn1c(CN2C3=Nc4ccccc4C(=O)NC3=Nc3ccccc32)nc2ccccc21`, the Activity is 74.4%.
Same read-out and setting: the value for `Nc1nc2ccccc2[nH]c1=O` was 78.1%; that for `Nc1c(-c2nc3ccccc3[nH]2)cc(-c2ccccc2)n1-c1ccc(Br)cc1` was 83.2%.

A further test has as its system Raji. The experiment in a line: Inhibition of tumor promotion in human Raji cells assessed as TPA-induced Epstein-Barr virus early antigen activation at 500 mol ratio/TPA after 48 hrs by indirect immunofluorescence analysis relative to TPA alone. The test is classed as functional. On the set-up: scale not given: the % may be the effect or the level left.
Conditions: not given
On to `O=C1NC2=Nc3ccccc3N(Cc3nc4ccccc4[nH]3)C2=Nc2ccccc21`, for which the Activity was found to be 53.1%.
On to `Nc1c(-c2nc3ccccc3[nH]2)cc(-c2ccccc2)n1-c1cccc(Br)c1`, for which the Activity is reported as 49.9%.
Turning to `Nc1c(-c2nc3ccccc3[nH]2)cc(-c2ccccc2)n1-c1cccc(Cl)c1`, the Activity is 48.3%.
For the compound `Nc1c(-c2nc3ccccc3[nH]2)cc(-c2ccccc2)n1-c1ccccn1`, the Activity is listed as 47.3%.
The same measure, in the same setting: the value for `CCOC(=O)Cn1c(CN2C3=Nc4ccccc4C(=O)NC3=Nc3ccccc32)nc2ccccc21` was 43.7%.
Consider `Nc1nc2ccccc2[nH]c1=O`, for which the Activity came out at 46.3%.
Regarding `Nc1c(-c2nc3ccccc3[nH]2)cc(-c2ccccc2)n1-c1ccc(Br)cc1`, the Activity was found to be 48%.

The next test concerns Raji. Nature of the test: Inhibition of tumor promotion in human Raji cells assessed as TPA-induced Epstein-Barr virus early antigen activation at 1000 mol ratio/TPA after 48 hrs by indirect immunofluorescence analysis relative to TPA alone. The test is classed as functional.
Conditions: not given
On the set-up: scale not given: the % may be the effect or the level left.
`O=C1NC2=Nc3ccccc3N(Cc3nc4ccccc4[nH]3)C2=Nc2ccccc21`: the Activity came out at 20.5%.
As for `Nc1c(-c2nc3ccccc3[nH]2)cc(-c2ccccc2)n1-c1cccc(Br)c1`, the Activity came out at 19.2%.
Consider `Nc1c(-c2nc3ccccc3[nH]2)cc(-c2ccccc2)n1-c1cccc(Cl)c1`, for which the Activity was found to be 17.8%.
As for `Nc1c(-c2nc3ccccc3[nH]2)cc(-c2ccccc2)n1-c1ccccn1`, the Activity stood at 15.9%.
Same read-out and setting: next, `CCOC(=O)Cn1c(CN2C3=Nc4ccccc4C(=O)NC3=Nc3ccccc32)nc2ccccc21`: 10.3%; `Nc1nc2ccccc2[nH]c1=O`: 12.6%; `Nc1c(-c2nc3ccccc3[nH]2)cc(-c2ccccc2)n1-c1ccc(Br)cc1`: 18.9%.

In another test the test system is A549. The experiment in a line: Cytotoxicity against human A549 cells after 72 hrs by alamar blue assay. It is filed as functional, cell-based. The settings on record: A549, 72 h.
`O=C1NC2=Nc3ccccc3N(Cc3nc4ccccc4[nH]3)C2=Nc2ccccc21`: the IC50 was found to be 8.5 µM.
In turn, `Nc1c(-c2nc3ccccc3[nH]2)cc(-c2ccccc2)n1-c1cccc(Br)c1` yielded an IC50 of 13.5 µM.
In turn, `Nc1c(-c2nc3ccccc3[nH]2)cc(-c2ccccc2)n1-c1cccc(Cl)c1` yielded an IC50 of 7 µM.
In turn, `Nc1c(-c2nc3ccccc3[nH]2)cc(-c2ccccc2)n1-c1ccccn1` gave an IC50 of 8 µM.
Still for that read-out and setting: next, `N#Cc1cc(-c2ccccc2)n(-c2ccc(Cl)cc2)c1N`: 7.7 µM.
With `CCOC(=O)Cn1c(CN2C3=Nc4ccccc4C(=O)NC3=Nc3ccccc32)nc2ccccc21`, the IC50 amounted to 8.4 µM.
As for `N#Cc1cc(-c2ccccc2)n(-c2ccncc2)c1N`, the IC50 was determined as 10.7 µM.
With `Nc1nc2ccccc2[nH]c1=O`, the IC50 is 9.1 µM.
In the case of `N#Cc1cc(-c2ccccc2)n(-c2cccc(Br)c2)c1N`, the IC50 stood at 13 µM.
For `N#Cc1cc(-c2ccccc2)n(-c2cccc(Cl)c2)c1N`, the IC50 worked out at 8 µM.
Same read-out and setting: next, `Nc1c(-c2nc3ccccc3[nH]2)cc(-c2ccccc2)n1-c1ccc(Br)cc1`: 12 µM.
`N#Cc1cc(-c2ccccc2)n(-c2ccccn2)c1N` yielded an IC50 of 32 µM.

The next test deals with MCF7. Nature of the test: cells. The settings on record: Homo sapiens, MCF7, 48 h.
Description: Cytotoxicity against human MCF7 cells after 48 hrs by sulforhodamine B assay
In turn, `O=C1NC2=Nc3ccccc3N(Cc3nc4ccccc4[nH]3)C2=Nc2ccccc21` returned an IC50 of 1.66 µg/well.
Still for that read-out and setting: the value for `Nc1c(-c2nc3ccccc3[nH]2)cc(-c2ccccc2)n1-c1cccc(Br)c1` was 2.12 µg/well; that for `Nc1c(-c2nc3ccccc3[nH]2)cc(-c2ccccc2)n1-c1cccc(Cl)c1` was 1.7 µg/well; that for `Nc1c(-c2nc3ccccc3[nH]2)cc(-c2ccccc2)n1-c1ccccn1` was 0.934 µg/well.
Compound `CCOC(=O)Cn1c(CN2C3=Nc4ccccc4C(=O)NC3=Nc3ccccc32)nc2ccccc21` had an IC50 of 0.934 µg/well.
Compound `Nc1c(-c2nc3ccccc3[nH]2)cc(-c2ccccc2)n1-c1ccc(Br)cc1` returned an IC50 of 0.82 µg/well.
